Structures are written as SMILES.

The assay has as its system Aspergillus niger (ATCC 6275) and Penicillium pinophilum (ATCC 9644) mixture (interior films); Aureobasidium pullulans (ATCC 9348) (exterior films). The assay can be described thus: dry-film mildew resistance test of sealer/barrier compositions on coated filter paper on malt agar. It is filed as cell-based. The conditions noted are these: level of fungicide in the sealer/barrier composition; up to 14 days incubation. As for the experimental part: The above sealer/barrier compositions were tested to determine the performance of dry-films as protective sealers in preventing the development of mildew during testing on porous cellulosic substrates. Several test samples of the composition were prepared with levels of fungicide ranging from 250 ppm to 3000 ppm. In addition, a composition was prepared without fungicide for use as a control.
Individual samples of the sealer/barrier composition were weighed out. Fungicide was added to the samples of the sealer/barrier coating compositions in a ladder series of levels (e.g., 250, 500, 750 1000 ppm, etc.) and thoroughly mixed. The test porous cellulosic substrates consisting of Whatman No. 30 filter paper were first brush coated each with two (2) coats of test composition, and allowed to dry in a protected location. Duplicate two inch squares were then cut from the coated filter paper specimens and placed on the surface on malt agar petri plates.
Test inoculums consisting of aqueous spore suspensions at a concentrations of ˜10^5 spores were prepared in sterile water. Those films (compositions) which were intended for use in interior application were inoculated with a mixture of Aspergillus niger (ATCC 6275) and Penicillium pinophilum (ATCC 9644). Films intended for exterior application were inoculated with Aureobasidium pullulans (ATCC 9348). […]

Consider `c1ccc2[nH]c(-c3cscn3)nc2c1` [biocide, 2-(4-thiazoyl)benzimidazole], for which the “biocide level capable of preventing mold development on the substrate” value is reported as no more than 250 ppm.

These data come from US20050115197A1, “Antimicrobial barrier coatings and methods of use” (priority 2003, published 2005).
